Reference: ChEMBL document CHEMBL5724914, “Linking interpersonal differences in gut microbiota composition and drug biotransformation activity” (2024)

Assay: (§1) The drug is tested on Z-025 corresponding to rabbit gut metagenome with ENA study accession number: PRJEB37062 and ENA sample accession number: ERS12561824 for biotransformation under anaerobic condition. The drug concentrations were measured over 9 timepoints collected between 0 and 24 hours of incubation by liquid-chromatography-coupled mass spectrometry (LC–MS)
Conditions: 2 µM
Note: call rule not given here.

Row | Bacterial Biotransformation | Structure (SMILES)
1 | Compound metabolized | C#C[C@]1(O)CC[C@H]2[C@@H]3CCC4=CC(=O)CC[C@@H]4[C@H]3CC[C@@]21CC [LEVONORGESTREL]
2 | Compound metabolized | CCCc1nc(C(C)(C)O)c(C(=O)OCc2oc(=O)oc2C)n1Cc1ccc(-c2ccccc2-c2nnn[nH]2)cc1 [OLMESARTAN MEDOXOMIL]

Assay: as §1, with “Z-023” for “Z-025”, “to” for “to rabbit gut”, “ERS12561822” for “ERS12561824”
Conditions: 2 µM

Row | Bacterial Biotransformation | Structure (SMILES)
3 | Compound metabolized | CCCc1nc(C(C)(C)O)c(C(=O)OCc2oc(=O)oc2C)n1Cc1ccc(-c2ccccc2-c2nnn[nH]2)cc1 [OLMESARTAN MEDOXOMIL]

Assay: as §1, with “Z-022” for “Z-025”, “mouse” for “rabbit”, “ERS12561821” for “ERS12561824”
Conditions: 2 µM

Row | Bacterial Biotransformation | Structure (SMILES)
4 | Compound metabolized | C#C[C@]1(O)CC[C@H]2[C@@H]3CCC4=CC(=O)CC[C@@H]4[C@H]3CC[C@@]21CC [LEVONORGESTREL]
5 | Compound metabolized | CCCc1nc(C(C)(C)O)c(C(=O)OCc2oc(=O)oc2C)n1Cc1ccc(-c2ccccc2-c2nnn[nH]2)cc1 [OLMESARTAN MEDOXOMIL]

Assay: as §1, with “Z-021” for “Z-025”, “to” for “to rabbit gut”, “ERS12561820” for “ERS12561824”
Conditions: 2 µM

Row | Bacterial Biotransformation | Structure (SMILES)
6 | Compound metabolized | CCCc1nc(C(C)(C)O)c(C(=O)OCc2oc(=O)oc2C)n1Cc1ccc(-c2ccccc2-c2nnn[nH]2)cc1 [OLMESARTAN MEDOXOMIL]

Assay: as §1, with “Z-011” for “Z-025”, “mouse” for “rabbit”, “ERS12561811” for “ERS12561824”
Conditions: 2 µM

Row | Bacterial Biotransformation | Structure (SMILES)
7 | Compound metabolized | C#C[C@]1(O)CC[C@H]2[C@@H]3CCC4=CC(=O)CC[C@@H]4[C@H]3CC[C@@]21CC [LEVONORGESTREL]
8 | Compound NOT metabolized | CCCc1nc(C(C)(C)O)c(C(=O)OCc2oc(=O)oc2C)n1Cc1ccc(-c2ccccc2-c2nnn[nH]2)cc1 [OLMESARTAN MEDOXOMIL]

Assay: as §1, with “Z-006” for “Z-025”, “mouse” for “rabbit”, “ERS12561806” for “ERS12561824”
Conditions: 2 µM

Row | Bacterial Biotransformation | Structure (SMILES)
9 | Compound metabolized | C#C[C@]1(O)CC[C@H]2[C@@H]3CCC4=CC(=O)CC[C@@H]4[C@H]3CC[C@@]21CC [LEVONORGESTREL]
10 | Compound metabolized | CCCc1nc(C(C)(C)O)c(C(=O)OCc2oc(=O)oc2C)n1Cc1ccc(-c2ccccc2-c2nnn[nH]2)cc1 [OLMESARTAN MEDOXOMIL]

Assay: as §1, with “WLS-098” for “Z-025”, “human” for “rabbit”, “ERS12561754” for “ERS12561824”
Conditions: 2 µM

Row | Bacterial Biotransformation | Structure (SMILES)
11 | Compound metabolized | C#C[C@]1(O)CC[C@H]2[C@@H]3CCC4=CC(=O)CC[C@@H]4[C@H]3CC[C@@]21CC [LEVONORGESTREL]
12 | Compound NOT metabolized | CCCc1nc(C(C)(C)O)c(C(=O)OCc2oc(=O)oc2C)n1Cc1ccc(-c2ccccc2-c2nnn[nH]2)cc1 [OLMESARTAN MEDOXOMIL]

Assay: as §1, with “WLS-052” for “Z-025”, “human” for “rabbit”, “ERS12561747” for “ERS12561824”
Conditions: 2 µM

Row | Bacterial Biotransformation | Structure (SMILES)
13 | Compound metabolized | C#C[C@]1(O)CC[C@H]2[C@@H]3CCC4=CC(=O)CC[C@@H]4[C@H]3CC[C@@]21CC [LEVONORGESTREL]
14 | Compound metabolized | CCCc1nc(C(C)(C)O)c(C(=O)OCc2oc(=O)oc2C)n1Cc1ccc(-c2ccccc2-c2nnn[nH]2)cc1 [OLMESARTAN MEDOXOMIL]

Assay: as §1, with “WLS-039” for “Z-025”, “human” for “rabbit”, “ERS12561746” for “ERS12561824”
Conditions: 2 µM

Row | Bacterial Biotransformation | Structure (SMILES)
15 | Compound metabolized | C#C[C@]1(O)CC[C@H]2[C@@H]3CCC4=CC(=O)CC[C@@H]4[C@H]3CC[C@@]21CC [LEVONORGESTREL]
16 | Compound metabolized | CCCc1nc(C(C)(C)O)c(C(=O)OCc2oc(=O)oc2C)n1Cc1ccc(-c2ccccc2-c2nnn[nH]2)cc1 [OLMESARTAN MEDOXOMIL]

Assay: as §1, with “WLS-027” for “Z-025”, “human” for “rabbit”, “ERS12561744” for “ERS12561824”
Conditions: 2 µM

Row | Bacterial Biotransformation | Structure (SMILES)
17 | Compound metabolized | C#C[C@]1(O)CC[C@H]2[C@@H]3CCC4=CC(=O)CC[C@@H]4[C@H]3CC[C@@]21CC [LEVONORGESTREL]
18 | Compound metabolized | CCCc1nc(C(C)(C)O)c(C(=O)OCc2oc(=O)oc2C)n1Cc1ccc(-c2ccccc2-c2nnn[nH]2)cc1 [OLMESARTAN MEDOXOMIL]

Conditions: human gut metagenome, 24 h, 2 µM

Row | Bacterial Biotransformation | Structure (SMILES)
19 | Compound metabolized | C#C[C@]1(O)CC[C@H]2[C@@H]3CCC4=CC(=O)CC[C@@H]4[C@H]3CC[C@@]21CC [LEVONORGESTREL]
20 | Compound metabolized | CCCc1nc(C(C)(C)O)c(C(=O)OCc2oc(=O)oc2C)n1Cc1ccc(-c2ccccc2-c2nnn[nH]2)cc1 [OLMESARTAN MEDOXOMIL]

Conditions: human gut metagenome, 24 h, 2 µM
Remark: another data set of the same source

Row | Bacterial Biotransformation | Structure (SMILES)
21 | Compound metabolized | C#C[C@]1(O)CC[C@H]2[C@@H]3CCC4=CC(=O)CC[C@@H]4[C@H]3CC[C@@]21CC [LEVONORGESTREL]
22 | Compound metabolized | CCCc1nc(C(C)(C)O)c(C(=O)OCc2oc(=O)oc2C)n1Cc1ccc(-c2ccccc2-c2nnn[nH]2)cc1 [OLMESARTAN MEDOXOMIL]

Conditions: human gut metagenome, 24 h, 2 µM
Remark: another data set of the same source

Row | Bacterial Biotransformation | Structure (SMILES)
23 | Compound metabolized | C#C[C@]1(O)CC[C@H]2[C@@H]3CCC4=CC(=O)CC[C@@H]4[C@H]3CC[C@@]21CC [LEVONORGESTREL]
24 | Compound metabolized | CCCc1nc(C(C)(C)O)c(C(=O)OCc2oc(=O)oc2C)n1Cc1ccc(-c2ccccc2-c2nnn[nH]2)cc1 [OLMESARTAN MEDOXOMIL]

Conditions: human gut metagenome, 24 h, 2 µM
Remark: another data set of the same source

Row | Bacterial Biotransformation | Structure (SMILES)
25 | Compound metabolized | C#C[C@]1(O)CC[C@H]2[C@@H]3CCC4=CC(=O)CC[C@@H]4[C@H]3CC[C@@]21CC [LEVONORGESTREL]
26 | Compound NOT metabolized | CCCc1nc(C(C)(C)O)c(C(=O)OCc2oc(=O)oc2C)n1Cc1ccc(-c2ccccc2-c2nnn[nH]2)cc1 [OLMESARTAN MEDOXOMIL]

Conditions: human gut metagenome, 24 h, 2 µM
Remark: another data set of the same source

Row | Bacterial Biotransformation | Structure (SMILES)
27 | Compound NOT metabolized | C#C[C@]1(O)CC[C@H]2[C@@H]3CCC4=CC(=O)CC[C@@H]4[C@H]3CC[C@@]21CC [LEVONORGESTREL]
28 | Compound NOT metabolized | CCCc1nc(C(C)(C)O)c(C(=O)OCc2oc(=O)oc2C)n1Cc1ccc(-c2ccccc2-c2nnn[nH]2)cc1 [OLMESARTAN MEDOXOMIL]

Conditions: human gut metagenome, 24 h, 2 µM
Remark: another data set of the same source

Row | Bacterial Biotransformation | Structure (SMILES)
29 | Compound metabolized | C#C[C@]1(O)CC[C@H]2[C@@H]3CCC4=CC(=O)CC[C@@H]4[C@H]3CC[C@@]21CC [LEVONORGESTREL]
30 | Compound metabolized | CCCc1nc(C(C)(C)O)c(C(=O)OCc2oc(=O)oc2C)n1Cc1ccc(-c2ccccc2-c2nnn[nH]2)cc1 [OLMESARTAN MEDOXOMIL]

Conditions: human gut metagenome, 24 h, 2 µM
Remark: another data set of the same source

Row | Bacterial Biotransformation | Structure (SMILES)
31 | Compound NOT metabolized | C#C[C@]1(O)CC[C@H]2[C@@H]3CCC4=CC(=O)CC[C@@H]4[C@H]3CC[C@@]21CC [LEVONORGESTREL]
32 | Compound NOT metabolized | CCCc1nc(C(C)(C)O)c(C(=O)OCc2oc(=O)oc2C)n1Cc1ccc(-c2ccccc2-c2nnn[nH]2)cc1 [OLMESARTAN MEDOXOMIL]

Conditions: human gut metagenome, 24 h, 2 µM
Remark: another data set of the same source

Row | Bacterial Biotransformation | Structure (SMILES)
33 | Compound metabolized | C#C[C@]1(O)CC[C@H]2[C@@H]3CCC4=CC(=O)CC[C@@H]4[C@H]3CC[C@@]21CC [LEVONORGESTREL]
34 | Compound NOT metabolized | CCCc1nc(C(C)(C)O)c(C(=O)OCc2oc(=O)oc2C)n1Cc1ccc(-c2ccccc2-c2nnn[nH]2)cc1 [OLMESARTAN MEDOXOMIL]

Conditions: human gut metagenome, 24 h, 2 µM
Remark: another data set of the same source

Row | Bacterial Biotransformation | Structure (SMILES)
35 | Compound metabolized | C#C[C@]1(O)CC[C@H]2[C@@H]3CCC4=CC(=O)CC[C@@H]4[C@H]3CC[C@@]21CC [LEVONORGESTREL]
36 | Compound metabolized | CCCc1nc(C(C)(C)O)c(C(=O)OCc2oc(=O)oc2C)n1Cc1ccc(-c2ccccc2-c2nnn[nH]2)cc1 [OLMESARTAN MEDOXOMIL]
